Here are results for three compounds from PMC10575960, “Functional characterization of a lytic polysaccharide monooxygenase from Schizophyllum commune that degrades non-crystalline substrates” (Scientific Reports, 2023).

Assay [1] concerns the target T1, NcLPMO9C (Neurospora crassa, UniProt Q7SHI8).
T1 construct: gene gh61-3; CBM1-containing enzyme, produced in Pichia pastoris as described earlier, copper-saturated
T1 sequence (Q7SHI8 17-359): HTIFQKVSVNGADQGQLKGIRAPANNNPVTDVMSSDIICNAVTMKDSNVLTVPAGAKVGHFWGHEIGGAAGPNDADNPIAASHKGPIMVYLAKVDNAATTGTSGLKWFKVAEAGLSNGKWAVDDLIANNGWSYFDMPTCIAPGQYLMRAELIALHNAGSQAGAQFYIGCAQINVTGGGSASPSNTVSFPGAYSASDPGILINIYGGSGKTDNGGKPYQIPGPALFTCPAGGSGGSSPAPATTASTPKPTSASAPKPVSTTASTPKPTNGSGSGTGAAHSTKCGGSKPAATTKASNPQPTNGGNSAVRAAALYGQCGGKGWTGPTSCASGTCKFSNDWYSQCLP
Put plainly: HPAEC-PAD product analysis. The class given is biochemical. The note with it: 1 mM substrate, 1 µM LPMO, 1 mM ascorbic acid, 50 mM BisTris-HCl pH 6.5, 40 °C, 16 h.

The target in assay [2] is T2, ScLPMO9A (Schizophyllum commune, UniProt D8Q364).
T2 construct: gene LPMO9A; residues 20-247, pelB signal peptide for periplasmic export, E. coli T7 Express, no tag told; single domain without CBM; 15N-labelled copper-free (apo) protein for NMR
T2 sequence (D8Q364 20-247): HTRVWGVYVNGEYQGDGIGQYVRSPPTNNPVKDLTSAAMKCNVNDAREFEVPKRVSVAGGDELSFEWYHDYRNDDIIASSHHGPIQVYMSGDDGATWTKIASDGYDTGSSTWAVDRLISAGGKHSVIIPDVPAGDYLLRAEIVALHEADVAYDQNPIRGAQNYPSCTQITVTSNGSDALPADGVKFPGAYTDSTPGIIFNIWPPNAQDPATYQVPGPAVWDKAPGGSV
In words: NMR titration, […]-HSQC chemical shift perturbation. The class given is binding. The settings on record: copper-free apo enzyme, 15N-labelled, 25 mM Tris-HCl pH 7.0, 25 mM NaCl, 2.3% glycerol, 25 °C.

`OC[C@H]1O[C@@H](O[C@H]2[C@H](O)[C@@H](O)[C@H](O[C@H]3[C@H](O)[C@@H](O)[C@H](O[C@H]4[C@H](O)[C@@H](O)[C@H](O[C@H]5[C@H](O)[C@@H](O)[C@H](O[C@H]6[C@H](O)[C@@H](O)C(O)O[C@@H]6CO)O[C@@H]5CO)O[C@@H]4CO)O[C@@H]3CO)O[C@@H]2CO)[C@H](O)[C@@H](O)[C@@H]1O` (stereo partly shown) [cellohexaose]: the HPAEC-PAD product analysis result in assay [1] is “With cellohexaose (Glc6), NcLPMO9C generated primarily Glc4gemGlc and cellotetraose”. Besides, in assay [2] (range from four 1H-15N signals), the Kd – broadly, the concentration at which binding is half-saturated – lay in the range of 10 to 40 µM.
In the case of `OC[C@H]1O[C@@H](O[C@H]2[C@H](O)[C@@H](O)[C@H](O[C@H]3[C@H](O)[C@@H](O)[C@H](O[C@H]4[C@H](O)[C@@H](O)[C@H](O[C@H]5[C@H](O)[C@@H](O)C(O)O[C@@H]5CO)O[C@@H]4CO)O[C@@H]3CO)O[C@@H]2CO)[C@H](O)[C@@H](O)[C@@H]1O` (stereo partly shown) [cellopentaose], the Kd in assay [2] (range from two 1H-15N signals) was in the range of 30 to 50 µM.
Take `OC[C@H]1O[C@@H](O[C@H]2[C@H](O)[C@@H](O)[C@H](O[C@H]3[C@H](O)[C@@H](O)[C@H](O[C@H]4[C@H](O)[C@@H](O)C(O)O[C@@H]4CO)O[C@@H]3CO)O[C@@H]2CO)[C@H](O)[C@@H](O)[C@@H]1O` (stereo partly shown) [cellotetraose]: the HPAEC-PAD product analysis entry in assay [1] is “NcLPMO9C showed limited activity on cellotetraose (Glc4)”.
